Measurements: patent US12716055B2, “Treatment of disc degenerative disease and stimulation of proteoglycan synthesis by fibroblast conditioned media and formulations thereof” (FIBROBIOLOGICS, INC., priority 2019, dated 2026)

Tested on: Neonatal foreskin fibroblasts
Test: EGF production in foreskin fibroblasts cultured with naltrexone and TLR agonists (ELISA)
Format: cell-based
Settings: treatment of fibroblasts with opioid receptor antagonist, 12 hours of culture, 50% confluent
Description: The present example characterizes the use of naltrexone and a TLR agonist to stimulate EGF production in foreskin fibroblasts as an example of a type of fibroblasts.
Neonatal foreskin fibroblasts were obtained from ATCC and cultured in typical DMEM culture media containing 10% fetal calf serum and antibiotics. After 3 days of culture, fibroblasts where plated in 12 well plates and cultured at 50% confluent conditions. Addition of naltrexone (Sigma Aldrich®) and the indicated TLR agonists was performed for 12 hours of culture. Pam3CSK4 was added at a total concentration of 1 ug/ml. LPS was added at 0.5 ug/ml. CpG was added at 0.2 ug/ml. Concentration of EGF was assessed using ELISA (R&D Systems).

O=C1CC[C@@]2(O)[C@H]3Cc4ccc(O)c5c4[C@@]2(CCN3CC2CC2)[C@H]1O5 [naltrexone]
production of growth factors including EGF by fibroblasts: induce production of various growth factors including EGF
